{"source": "patent US5023082A", "about": "“Sustained-release pharmaceutical compositions” (Yissum Research Development Company of the Hebrew …, priority 1986, dated 1991)", "test": "Comparison of release rate of agents/salts from film-like implants", "type": "physicochemical", "text": "The amount of the pharmacological agent added to the implant will vary, in a manner understood by those of ordinary skill in the art, depending upon such criteria as: […] The above criteria will depend upon such factors as the patient's age, height, weight, sex, medical history, etc. The pharmacological agent must be present in an amount sufficient to impart therapeutic effect to the pharmaceutical composition. The nature of the active agent in the implant also plays an important role in the control release mechanism. […] Different salts of the same active agent may be released at different rates."}
{"smiles": "N=C(NCCCCCCNC(=N)NC(=N)Nc1ccc(Cl)cc1)NC(=N)Nc1ccc(Cl)cc1", "note": "[chlorhexidine acetate]", "values": [{"measurement": "Release rate from film-like implant compared with tetracycline HCl", "setting": "20% w/w per protein, same implant containing 20% w/w tetracycline HCl", "result": "more slowly"}, {"measurement": "Release rate from film-like implants compared with chlorhexidine HCl", "setting": "same formulation, 20% (w/w) chlorhexidine per protein", "result": "more slowly"}]}
